Test results as given in patent US9745275B2, “Pain-related compound and medical composition” (KYOTO UNIVERSITY, priority 2013, dated 2017).

Experiments:
Format in all cases: in vivo, mouse
[1] = system: carrageenan-induced inflammatory pain model mice; experiment: von Frey test with simultaneous administration of compound and opioid antagonist in carrageenan-induced inflammatory pain model mice; conditions: intraperitoneal, compound 1 nmol/g plus opioid antagonist 20 nmol/g, 7 h after carrageenan, evaluated at 1 h and 3 h
Method: Carrageenan was subcutaneously injected to a hind limb sole of each mouse, and seven hours later, the compound 1 and an opioid antagonist were simultaneously administered intraperitoneally. At one hour after the administration and at three hours after the administration, therapeutic effects with respect to mechanical allodynia were evaluated. Specific conditions were as follows.
Mouse: C57B116J, male, 8 weeks old
Induction of pain: Pain was induced by subcutaneously injecting 20 μL of physiological saline solution containing 2% λ-carrageenan to a hind limb sole.
Administration of therapeutic agent: 1% Tween80 (trademark) physiological saline solution containing 2% DMSO in which the compound 1 and an opioid antagonist described below were dissolved was administered intraperitoneally, in an amount of 0.01 mL per 1 g of the body weight (about 0.2 mL of the solution was administered per one mouse). The compound 1 was prepared so as to be 1 nmol per 1 g of the body weight of the mouse. The opioid antagonist was prepared so as to be 20 nmol per 1g of the body weight of the mouse.
Opioid antagonist MNTX: Methylnaltrexone bromide Antagonist selective to a […]. Unable to pass through the blood-brain barrier.
Opioid antagonist NAL-M: Naloxone methioclide Antagonist not selective to an opioid receptor. Unable to pass through the blood-brain barrier. […]

[2] = system: carrageenan-induced inflammatory pain model mice; experiment: von Frey test, mechanical allodynia in carrageenan-induced inflammatory pain model mice; conditions: for threshold of withdrawal reflex behavior to mechanical stimulation (FIG. 3A, FIG. 5A): intrathecal, given 6 h after carrageenan, examined over three hours (compound 2: 0.1, 1 or 10 pmol)
Method: After subcutaneous plantar administration of carrageenan, acute inflammation develops over several hours, which causes a phenomenon of hypersensitivity to mechanical stimulation and thermal stimulation. A therapeutic agent containing the compound 1 as an active ingredient was administered to each of model mice of this carrageenan-induced inflammatory pain, and pain was evaluated.
More specifically, at seven hours after carrageenan was subcutaneously administered to a hind limb sole of each mouse (male, C57BL/6J, 6 to 8 weeks old), the compound 1 was administered orally, and at one hour after the administration of the compound 1, therapeutic effects thereof with respect to mechanical allodynia were determined. Specific conditions are as follows.
Mouse: C57BL/6J, male, 8 weeks old, n =4 (each foot, n=8) Induction of pain: 25 μL of physiological saline solution containing 2% of λ-carrageenan was injected subcutaneously to hind limb soles, so that pain was induced. […]
Evaluation of pain: Evaluation was performed by von Frey test. More specifically, a hind limb sole of the mouse was mechanically stimulated with tips of von-Frey filaments having a variety of thicknesses, and a load of stimulation at which the mouse initiated a withdrawal behavior was determined. […]
(§1) Before and after carrageenan (2%, 25 μl) was subcutaneously administered to a one-side hind limb sole of each mouse (male, C57BL/6J, 6 to 8 weeks old), mechanical stimulation or thermal stimulation was applied, and threshold (mechanical stimulation) and latency (thermal stimulation) of a withdrawal reflex behavior of the hind limb were measured. […]
as §1

[3] = system: carrageenan-induced inflammatory pain model mice; experiment: latency of withdrawal reflex to thermal stimulation (thermal hyperalgesia) in carrageenan-induced inflammatory pain model mice; conditions: given 6 h after carrageenan; for suppression of thermal hyperalgesia: intrathecal, examined over three hours (compound 2: 0.1, 1 or 10 pmol)
Method: Before and after carrageenan (2%, 25 μl) was subcutaneously administered to a one-side hind limb sole of each mouse (male, C57BL/6J, ([…]), thermal stimulation was applied, and latency of a withdrawal reflex behavior of the hind limb was measured. The appearance of the phenomenon of thermal hyperalgesia due to carrageenan was checked over six hours after the administration, and thereafter, the compound 1 or a solvent used for dissolution (veh.) was administered orally (1 pmol or 10 pmol per 1 g of the mouse body). Effects were examined over two hours thereafter. The results are illustrated in FIG. 2.
Before and after carrageenan (2%, 25 μl) was subcutaneously administered to a one-side hind limb sole of each mouse (male, C57BL/6J, 6 to 8 weeks old), mechanical stimulation or thermal stimulation was applied, and threshold (mechanical stimulation) and latency (thermal stimulation) of a withdrawal reflex behavior of the hind limb were measured. The appearance of the phenomenon of mechanical allodynia or the appearance of thermal hyperalgesia due to carrageenan was checked over six hours after the administration, and thereafter, the compound 2 was administered intrathecally (0.1 pmol, 1 pmol, or 10 pmol). Effects were examined over three hours thereafter. The solution of the compound 2 was prepared by dissolving the compound 2 in 99% DMSO, and diluting the same with physiological saline solution (0.2% DMSO in physiological saline solution).
Before and after carrageenan (2%, 25 μl) was subcutaneously administered to a one-side hind limb sole of each mouse (male, C57BL/6J, 6 to 8 weeks old), mechanical stimulation or thermal stimulation was applied, and threshold (mechanical stimulation) and latency (thermal stimulation) of a withdrawal reflex behavior of the hind limb were measured. The appearance of the phenomenon of mechanical allodynia or the appearance of the thermal hyperalgesia due to carrageenan was checked over six hours after the administration, and thereafter, the compound 4 was administered intrathecally. Effects were examined over three hours thereafter. The solution of the compound 4 was prepared by dissolving the […] in 99% DMSO, and diluting the same with physiological saline solution (0.2% DMSO in physiological saline solution). The results are illustrated in FIG. 5.
Before and after carrageenan (2%, 25 μl) was subcutaneously administered to a one-side hind limb sole of each mouse (male, C57BL/6J, 6 to 8 weeks old), thermal stimulation was applied, and latency of a withdrawal reflex behavior of the hind limb was measured. The appearance of the phenomenon of thermal hyperalgesia due to carrageenan was checked over six hours after the administration, and thereafter, the compound 5 was administered intrathecally. Effects were examined over three hours thereafter. The solution of the compound 5 was prepared by dissolving the compound 5 in 99% DMSO, and diluting the same with physiological saline solution (0.2% DMSO in physiological saline solution). The results are illustrated in FIG. 6.
Before and after carrageenan (2%, 25 μl) was subcutaneously administered to a one-side hind limb sole of each mouse (male, C57BL/6J, 6 to 8 weeks old), thermal stimulation was applied, and latency of a withdrawal reflex behavior of the hind limb was measured. […]

[4] = system: complete Freund's adjuvant-induced inflammatory pain model mice; experiment: threshold of withdrawal reflex to mechanical stimulation in complete Freund's adjuvant-induced inflammatory pain model mice; conditions: intrathecal, three days after CFA, examined over three hours
Method: Subcutaneous plantar administration of complete Freund's adjuvant (CFA) caused prolonged inflammation, which was more persistent than the inflammation caused in the carrageenan models, and this caused phenomena of hypersensitivity to mechanical stimulation and thermal stimulation. Using these CFA model mice, pain therapy effects of the compound 3 were evaluated. Before and after CFA (25 μl) was subcutaneously administered to a one-side hind limb sole of each mouse (male, C57BL/6J, 6 to 8 weeks old), mechanical stimulation was applied, and threshold of a withdrawal reflex behavior of the hind limb was measured. The appearance of the phenomenon of mechanical allodynia due to CFA was checked three days after the administration, and the compound 3 was administered intrathecally. Effects were examined over three hours thereafter. The solution of the compound 3 was prepared by dissolving the compound 3 in 99% DMSO, and diluting the same with physiological saline solution (0.2% DMSO in physiological saline solution). The results are illustrated in FIG. 4.

SMILES | threshold of withdrawal reflex behavior to mechanical stimulation (FIG. 3A, FIG. 5A) [2] | suppression of thermal hyperalgesia [3] | other results
CCN1/C(=C/C(C)=O)Sc2ccc(F)cc21 [compound 1, (1Z)-1-(3-ethyl-5-fluoro-2(3H)-benzothiazolylidene)-2-propanone] |  |  | analgesic action on mechanical allodynia with simultaneous opioid antagonist (MNTX or NAL-M), FIG. 8 [1]: hindered by a peripheral opioid antagonist; therapeutic effect on mechanical allodynia (threshold load of withdrawal behavior, von Frey filaments), FIG. 1 ([2]; oral, 1 nmol per 1 g body weight, 7 h after carrageenan, evaluated 1 h after administration, C57BL/6J male mice): significantly reduced; therapeutic effect on thermal hyperalgesia (latency of withdrawal reflex to thermal stimulation), FIG. 2 ([3]; oral, 1 pmol or 10 pmol per 1 g of mouse body, examined over two hours): significantly reduced
CCN1/C(=C/C(C)=O)Sc2ccc(OC)cc21 [compound 2] | significantly reduced | significantly reduced | 
CCN1/C(=C/C(C)=O)Sc2cc(OC)ccc21 [compound 3, (1Z)-1-(3-ethyl-6-methoxy-2(3H)-benzothiazoylidene)-2-propanone] |  |  | threshold of withdrawal reflex behavior to mechanical stimulation, FIG. 4 [4]: significantly suppressed
CCN1/C(=C/C(C)=O)Sc2c(OC)cccc21 [compound 4] | significantly suppressed | significantly suppressed | 
CCN1/C(=C/C(C)=O)Sc2ccc(Br)cc21 [compound 5, (1Z)-1-(5-bromo-3-ethyl-2(3H)-benzothiazoylidene)-2-propanone] |  | significantly suppressed | 
CCN1/C(=C/C(C)=O)Sc2ccc(Cl)cc21 [compound 6, (1Z)-1-(5-chloro-3-ethyl-2(3H)-benzothiazoylidene)propan-2-one] |  | significantly suppressed | 
